This test has as its target T1, RORc ligand binding domain (Homo sapiens, UniProt P51449).
T1 construct: host or cells: E. coli
T1 sequence (P51449 269-508 limits assumed): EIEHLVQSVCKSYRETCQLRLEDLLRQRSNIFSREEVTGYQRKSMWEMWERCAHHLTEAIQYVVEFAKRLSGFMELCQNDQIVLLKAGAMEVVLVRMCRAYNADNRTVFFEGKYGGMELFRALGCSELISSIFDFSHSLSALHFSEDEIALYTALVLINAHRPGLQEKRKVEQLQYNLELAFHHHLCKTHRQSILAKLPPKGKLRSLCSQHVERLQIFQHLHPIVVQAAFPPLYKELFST
Kind of test: In Vitro RORc Ligand Binding Assay (25-[3H]hydroxycholesterol radioligand filtration). Conditions: In Vitro RORc Ligand Binding Assay; Table 4; read-out: RORc IC50.

Each structure is given as a SMILES string.

As for `C[C@H]1CCC(c2ccccc2)S(=O)(=O)N1Cc1ccc(N2CCC(C(N)=O)CC2)cc1F` (single isomer, unassigned) [Example 221], the half-maximal inhibitory concentration (IC50) – broadly, the concentration at which inhibition is half-maximal – was 85 nM.
Regarding `COc1ccccc1C1CC[C@H](C)N(Cc2ccc(N3CCN(C(C)=O)CC3)cc2F)S1(=O)=O` (single isomer, unassigned) [Example 223], the IC50 was found to be 135 nM.
Then `COc1ccccc1C1CC[C@H](C)N(Cc2ccc(N3CCN(C(C)=O)CC3)cc2F)S1(=O)=O` (single isomer, unassigned) [Example 224], with 62 nM; and `C[C@H]1CCC(c2ccccc2)S(=O)(=O)N1Cc1ccc(N2CCC(c3nnc[nH]3)CC2)cc1F` (single isomer, unassigned) [Example 225], with 150 nM; and `C[C@H]1CCC(c2ccccc2)S(=O)(=O)N1Cc1ccc(N2CCC(c3nnc[nH]3)CC2)cc1F` (single isomer, unassigned) [Example 226], with 281 nM.
In the case of `CC[C@H]1CCC(c2ccccc2)S(=O)(=O)N1Cc1ccc(N2CCC(n3cnnc3)CC2)cc1F` (single isomer, unassigned) [Example 228] it was 21 nM; in that of `CC[C@H]1CCC(c2ccccc2)S(=O)(=O)N1Cc1ccc(N2CCC(n3cnnc3)CC2)cc1F` (single isomer, unassigned) [Example 229], 168 nM; in that of `CC[C@H]1CCC(c2ccccc2)S(=O)(=O)N1Cc1ccc(NC2CCN(S(C)(=O)=O)CC2)cc1F` (single isomer, unassigned) [Example 239], 3 nM.
In the case of `CC[C@H]1CCC(c2ccccc2)S(=O)(=O)N1Cc1ccc(NC2CCN(S(C)(=O)=O)CC2)cc1F` (single isomer, unassigned) [Example 240], the IC50 is 4 nM.
In the case of `C[C@H]1CCC(c2ccccc2)S(=O)(=O)N1Cc1ccc(N2CCC(c3cn[nH]c3)CC2)cc1F` (single isomer, unassigned) [Example 242] it was 4 nM; in that of `C[C@H]1CCC(c2ccccc2)S(=O)(=O)N1Cc1ccc(N2CCC(c3cn[nH]c3)CC2)cc1F` (single isomer, unassigned) [Example 243], 3 nM.
In the case of `C[C@H]1CCC(c2ccccc2)S(=O)(=O)N1Cc1ccc(N2CCC(n3ncnn3)CC2)cc1F` (single isomer, unassigned) [Example 244], the IC50 came to 24 nM.
In the case of `CC(=O)N1CCN(c2ccc(CN3[C@@H](C(C)C)CCC(c4ccccc4)S3(=O)=O)c(F)c2)CC1` (single isomer, unassigned) [Example 246] it was 30 nM.
With `CC(=O)N1CCN(c2ccc(CN3[C@@H](C(C)C)CCC(c4ccccc4)S3(=O)=O)c(F)c2)CC1` (single isomer, unassigned) [Example 247], the half-maximal inhibitory concentration (IC50) is 29 nM.
In the case of `CC(=O)N1CCN(c2ccc(CN3C4CCCC4CC(c4ccccc4)S3(=O)=O)c(F)c2)CC1` (single isomer, unassigned) [Example 248, 1-(4-(4-((2,2-dioxido-3-phenylhexahydro-cyclopenta[c][1,2]thiazin-1(3H)-yl)methyl)-3-fluorophenyl)piper-azin-1-yl)ethanone] it was 7 nM.
Regarding `CS(=O)(=O)N1CCC(Nc2ccc(CN3CC4(CC4)CC(c4ccccc4)S3(=O)=O)c(F)c2)CC1` (single isomer, unassigned) [Example 249, 5-(2-fluoro-4-((1-(methylsulfonyl)piperidin-4-yl)amino)benzyl)-7-phenyl-6-thia-5-azaspiro[2.5]octane 6,6-dioxide], the IC50 came to 37 nM.
In the case of `CC(=O)N1CCN(c2ccc(CN3C4CCCC4CC(c4ccccc4)S3(=O)=O)c(F)c2)CC1` (single isomer, unassigned) [Example 250, 1-(4-(4-((2,2-dioxido-3-phenylhexahydro-cyclopenta[c][1,2]thiazin-1(3H)-yl)methyl)-3-fluorophenyl)piper-azin-1-yl)ethanone] it was 11 nM; in that of `CC(=O)N1CCN(c2ccc(CN3C4CCCC4CC(c4ccccc4)S3(=O)=O)c(F)c2)CC1` (single isomer, unassigned) [Example 251, 1-(4-(4-((2,2-dioxido-3-phenylhexahydro-cyclopenta[c][1,2]thiazin-1(3H)-yl)methyl)-3-fluorophenyl)piper-azin-1-yl)ethanone], 219 nM; in that of `CC(=O)N1CCN(c2ccc(CN3C4CCCC4CC(c4ccccc4)S3(=O)=O)c(F)c2)CC1` (single isomer, unassigned) [Example 252, 1-(4-(4-((2,2-dioxido-3-phenylhexahydro-cyclopenta[c][1,2]thiazin-1(3H)-yl)methyl)-3-fluorophenyl)piper-azin-1-yl)ethanone], 68 nM.
Consider `CS(=O)(=O)N1CCC(Nc2ccc(CN3CC4(CC4)CC(c4ccccc4)S3(=O)=O)c(F)c2)CC1` (single isomer, unassigned) [Example 253, 5-(2-fluoro-4-((1-(methylsulfonyl)piperidin-4-yl)amino)benzyl)-7-phenyl-6-thia-5-azaspiro[2.5]octane 6,6-dioxide], for which the IC50 was 7 nM.
As for `C[C@H]1CCC(c2ccccc2)S(=O)(=O)N1Cc1ccc(N2CCC(c3cnn[nH]3)CC2)cc1F` (single isomer, unassigned) [Example 254], the IC50 came out at 9 nM.
In the case of `C[C@H]1CCC(c2ccccc2)S(=O)(=O)N1Cc1ccc(N2CCC(c3cnn[nH]3)CC2)cc1F` (single isomer, unassigned) [Example 255] it was 12 nM; in that of `C[C@H]1CCC(c2ccccc2)S(=O)(=O)N1Cc1ccc(N2CCC(n3ccnn3)CC2)cc1F` (single isomer, unassigned) [Example 256], 4 nM.
Then `O=S1(=O)C(c2ccccc2)CC2(CC2)CN1Cc1ccc(N2CCC(n3cnnc3)CC2)cc1F` (single isomer, unassigned) [Example 257, 5-[2-Fluoro-4-(4-[1,2,4]triazol-4-yl-piperidin-1-yl)-benzyl]-7-phenyl-6-thia-5-aza-spiro[2.5]octane 6,6-dioxde], with 54 nM; and `CC(=O)N1CCN(c2ccc(CN3CC4(COC4)CC(c4ccccc4)S3(=O)=O)c(F)c2)CC1` (single isomer, unassigned) [Example 258, 1-(4-(4-((7,7-dioxido-8-phenyl-2-oxa-7-thia-6-azaspiro[3.5]nonan-6-yl)methyl)-3-fluorophenyl)piper-azin-1-yl)ethanone], with 1040 nM; and `O=S1(=O)C(c2ccccc2)CC2(CC2)CN1Cc1ccc(N2CCC(n3cnnc3)CC2)cc1F` (single isomer, unassigned) [Example 259, 5-[2-Fluoro-4-(4-[1,2,4]triazol-4-yl-piperidin-1-yl)-benzyl]-7-phenyl-6-thia-5-aza-spiro[2.5]octane 6,6-dioxide], with 57 nM.
In the case of `CC(=O)N1CCN(c2ccc(CN3CC4(COC4)CC(c4ccccc4)S3(=O)=O)c(F)c2)CC1` (single isomer, unassigned) [Example 266, 1-(4-(4-((7,7-dioxido-8-phenyl-2-oxa-7-thia-6-azaspiro[3.5]nonan-6-yl)methyl)-3-fluorophenyl)piper-azin-1-yl)ethanone] it was 4330 nM.
With `C[C@H]1CCC(c2ccccc2)S(=O)(=O)N1Cc1ccc(C(=O)NC2CCOCC2)cc1` (single isomer, unassigned) [Example 267], the IC50 amounted to 2810 nM.

For the origin of these results see patent publication US9115101B2 (Genentech, Inc., priority 2012, dated 2015).
